Columns and labels:
MCF7 = assay: Antitumor activity against human MCF7 cells; assay type: functional
NCI/ADR-RES = assay: Antitumor activity against human NCI/ADR-RES cells; assay type: functional
[1] = Antitumor activity against human […] cells; assay type: functional
[2] = Antitumor activity against human HS 578T cells; assay type: functional
CCRF-CEM = assay: Antitumor activity against human CCRF-CEM cells; assay type: functional
[3] = Antitumor activity against human HL60 (TB) cells; assay type: functional, HL-60(TB); conditions: HL-60
K562 = assay: Antitumor activity against human K562 cells; assay type: functional
MOLT-4 = assay: Antitumor activity against human MOLT4 cells; assay type: functional
RPMI-8226 = assay: Antitumor activity against human RPMI8226 cells; assay type: functional
SR = assay: Antitumor activity against human SR cells; assay type: functional
A549 = assay: Antitumor activity against human A549 cells; assay type: functional
EKVX = assay: Antitumor activity against human EKVX cells; assay type: functional
HOP-62 = assay: Antitumor activity against human HOP62 cells; assay type: functional
HOP-92 = assay: Antitumor activity against human HOP92 cells; assay type: functional
NCI-H226 = assay: Antitumor activity against human NCI-H226 cells; assay type: functional
NCI-H23 = assay: Antitumor activity against human NCI-H23 cells; assay type: functional
[4] = Antitumor activity against human NCI-H322 cells; assay type: functional
NCI-H460 = assay: Antitumor activity against human NCI-H460 cells; assay type: functional
NCI-H522 [5] = assay: Antitumor activity against human NCI-H522 cells; assay type: functional
COLO 205 = assay: Antitumor activity against human COLO205 cells; assay type: functional
HCC 2998 = assay: Antitumor activity against human HCC2998 cells; assay type: functional
HCT-116 = assay: Antitumor activity against human HCT116 cells; assay type: functional
HCT-15 = assay: Antitumor activity against human HCT15 cells; assay type: functional
HT-29 = assay: Antitumor activity against human HT29 cells; assay type: functional
KM12 = assay: Antitumor activity against human KM12 cells; assay type: functional
SW-620 = assay: Antitumor activity against human SW620 cells; assay type: functional
SF-268 = assay: Antitumor activity against human SF268 cells; assay type: functional
SF-295 = assay: Antitumor activity against human SF295 cells; assay type: functional
SF-539 = assay: Antitumor activity against human SF539 cells; assay type: functional
SNB-19 = assay: Antitumor activity against human SNB19 cells; assay type: functional
SNB-75 = assay: Antitumor activity against human SNB75 cells; assay type: functional
U-251 = assay: Antitumor activity against human U251 cells; assay type: functional
LOX IMVI = assay: Antitumor activity against human LOX IMVI cells; assay type: functional
Malme-3M = assay: Antitumor activity against human MALME-3M cells; assay type: functional
SK-MEL-28 = assay: Antitumor activity against human SK-MEL-28 cells; assay type: functional
SK-MEL-5 = assay: Antitumor activity against human SK-MEL-5 cells; assay type: functional
UACC-257 = assay: Antitumor activity against human UACC257 cells; assay type: functional
UACC-62 = assay: Antitumor activity against human UACC62 cells; assay type: functional
IGROV-1 [6] = assay: Antitumor activity against human IGROV1 cells; assay type: functional
OVCAR-3 = assay: Antitumor activity against human OVCAR-3 cells; assay type: functional
OVCAR-4 = assay: Antitumor activity against human OVCAR4 cells; assay type: functional
OVCAR-5 = assay: Antitumor activity against human OVCAR5 cells; assay type: functional
OVCAR-8 = assay: Antitumor activity against human OVCAR8 cells; assay type: functional
SK-OV-3 = assay: Antitumor activity against human SK-OV-3 cells; assay type: functional
786-0 = assay: Antitumor activity against human 786-0 cells; assay type: functional
A498 = assay: Antitumor activity against human A498 cells; assay type: functional
ACHN = assay: Antitumor activity against human ACHN cells; assay type: functional
CAKI-1 = assay: Antitumor activity against human CAKI-1 cells; assay type: functional
RXF 393 = assay: Antitumor activity against human RXF393 cells; assay type: functional
SN12C = assay: Antitumor activity against human SN12C cells; assay type: functional
TK-10 = assay: Antitumor activity against human TK10 cells; assay type: functional
UO-31 = assay: Antitumor activity against human UO31 cells; assay type: functional
PC-3 = assay: Antitumor activity against human PC3 cells; assay type: functional
DU-145 = assay: Antitumor activity against human DU145 cells; assay type: functional
MDA-MB-435 = assay: Antitumor activity against human MDA-MB-435 cells; assay type: functional
BT-549 = assay: Antitumor activity against human BT549 cells; assay type: functional
NCI-H522 [7] = assay: Growth inhibition of human NCI-H522 cells at 1 uM; assay type: functional
NCI-H522 [8] = assay: Growth inhibition of human NCI-H522 cells at 10 uM; assay type: functional
IGROV-1 [9] = assay: Growth inhibition of human IGROV1 cells at 10 nM; assay type: functional
IGROV-1 [10] = assay: Growth inhibition of human IGROV1 cells at 0.1 uM; assay type: functional
IGROV-1 [11] = assay: Growth inhibition of human IGROV1 cells at 1 uM; assay type: functional
IGROV-1 [12] = assay: Growth inhibition of human IGROV1 cells at 10 uM; assay type: functional

OC[C@H]1C[C@](O)(c2ccccc2Cl)[C@@H](c2ccccc2Cl)O1 (relative stereo)
GI50 (MCF7): 26.9 µM
GI50 (NCI/ADR-RES): 29.5 µM
GI50 [1]: 18.6 µM
GI50 [2]: 16.2 µM
GI50 (CCRF-CEM): 27.5 µM
GI50 [3]: 16.6 µM
GI50 (K562): 20 µM
GI50 (MOLT-4): 17 µM
GI50 (RPMI-8226): 21.9 µM
GI50 (SR): 17 µM
GI50 (A549): 22.9 µM
GI50 (EKVX): 19.1 µM
GI50 (HOP-62): 31.6 µM
GI50 (HOP-92): 22.4 µM
GI50 (NCI-H226): 26.3 µM
GI50 (NCI-H23): 25.7 µM
GI50 [4]: 32.4 µM
GI50 (NCI-H460): 20 µM
GI50 (NCI-H522 [5]): 13.5 µM
GI50 (COLO 205): 14.8 µM
GI50 (HCC 2998): 29.5 µM
GI50 (HCT-116): 25.7 µM
GI50 (HCT-15): 28.2 µM
GI50 (HT-29): 17 µM
GI50 (KM12): 25.7 µM
GI50 (SW-620): 30.2 µM
GI50 (SF-268): 24 µM
GI50 (SF-295): 26.9 µM
GI50 (SF-539): 22.4 µM
GI50 (SNB-19): 31.6 µM
GI50 (SNB-75): 20.9 µM
GI50 (U-251): 28.2 µM
GI50 (LOX IMVI): 17 µM
GI50 (Malme-3M): 21.4 µM
GI50 (SK-MEL-28): 26.3 µM
GI50 (SK-MEL-5): 17 µM
GI50 (UACC-257): 19.1 µM
GI50 (UACC-62): 16.6 µM
GI50 (IGROV-1 [6]): 11 µM
GI50 (OVCAR-3): 19.5 µM
GI50 (OVCAR-4): 24.5 µM
GI50 (OVCAR-5): 22.9 µM
GI50 (OVCAR-8): 26.3 µM
GI50 (SK-OV-3): 23.4 µM
GI50 (786-0): 26.3 µM
GI50 (A498): 22.9 µM
GI50 (ACHN): 27.5 µM
GI50 (CAKI-1): 32.4 µM
GI50 (RXF 393): 18.6 µM
GI50 (SN12C): 20.9 µM
GI50 (TK-10): 20.9 µM
GI50 (UO-31): 22.9 µM
GI50 (PC-3): 24 µM
GI50 (DU-145): 26.9 µM
GI50 (MDA-MB-435): 16.2 µM
GI50 (BT-549): 17 µM
inhibition at 1 µM (NCI-H522 [7]): 27%
inhibition at 10 µM (NCI-H522 [8]): 36%
inhibition at 0.01 µM (IGROV-1 [9]): 15%
inhibition at 0.1 µM (IGROV-1 [10]): 28%
inhibition at 1 µM (IGROV-1 [11]): 32%
inhibition at 10 µM (IGROV-1 [12]): 46%

Source: ChEMBL document CHEMBL1143055, “2,3,5-Substituted tetrahydrofurans as cancer chemopreventives. Part 1: synthesis and anti-cancer activities of 5-hydroxymethyl-2,3-diaryl-tetrahydro-furan-3-ols” (2007)
